# Reference: PubChem BioAssay (NCI)
#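 Each compound was tested at five concentrations against cells in 96-well plates for 48 hours. GI50 is the concentration that inhibits growth by half. TGI: concentration producing complete growth inhibition.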
# How the values were obtained:
# Experiment in all cases: DTP human tumour cell line panel, 48 h
# NCI-H522 lung = tested on: NCI-H522 lung
# SNB-19 CNS = tested on: SNB-19 CNS
# U251 CNS = tested on: U251 CNS
# K-562 leukemia = tested on: K-562 leukemia
# PC-3 prostate = tested on: PC-3 prostate
# BT-549 breast = tested on: BT-549 breast
# HCC-2998 colon = tested on: HCC-2998 colon
# HL-60(TB) leukemia = tested on: HL-60(TB) leukemia
# NCI/ADR-RES ovarian = tested on: NCI/ADR-RES ovarian
# SF-539 CNS = tested on: SF-539 CNS
# UO-31 renal = tested on: UO-31 renal
# CAKI-1 renal = tested on: CAKI-1 renal
# TK-10 renal = tested on: TK-10 renal
# 786-0 renal = tested on: 786-0 renal
# RPMI-8226 leukemia = tested on: RPMI-8226 leukemia
# RXF 393 renal = tested on: RXF 393 renal
# SF-268 CNS = tested on: SF-268 CNS
# SF-295 CNS = tested on: SF-295 CNS
# MALME-3M melanoma = tested on: MALME-3M melanoma
# OVCAR-8 ovarian = tested on: OVCAR-8 ovarian
# T-47D breast = tested on: T-47D breast
# HS 578T breast = tested on: HS 578T breast
# UACC-257 melanoma = tested on: UACC-257 melanoma
# MDA-MB-435 = tested on: MDA-MB-435
# SK-MEL-5 melanoma = tested on: SK-MEL-5 melanoma
# M14 melanoma = tested on: M14 melanoma
# A549 NSCLC = tested on: A549 NSCLC
# HOP-62 NSCLC = tested on: HOP-62 NSCLC
# OVCAR-4 ovarian = tested on: OVCAR-4 ovarian
# NCI-H460 lung = tested on: NCI-H460 lung
# MDA-MB-231 breast = tested on: MDA-MB-231 breast
# UACC-62 melanoma = tested on: UACC-62 melanoma
# HCT-15 colon = tested on: HCT-15 colon
# HCT-116 colon = tested on: HCT-116 colon
# HOP-92 NSCLC = tested on: HOP-92 NSCLC
# IGROV1 ovarian = tested on: IGROV1 ovarian
# KM12 colon = tested on: KM12 colon
# SW-620 colon = tested on: SW-620 colon
# SK-OV-3 ovarian = tested on: SK-OV-3 ovarian
# LOX IMVI melanoma = tested on: LOX IMVI melanoma
# OVCAR-5 ovarian = tested on: OVCAR-5 ovarian
# ACHN renal = tested on: ACHN renal
# A498 renal = tested on: A498 renal
# EKVX NSCLC = tested on: EKVX NSCLC
# MCF7 breast = tested on: MCF7 breast
# NCI-H23 lung = tested on: NCI-H23 lung
# COLO 205 colon = tested on: COLO 205 colon
# SK-MEL-28 melanoma = tested on: SK-MEL-28 melanoma
# HT29 colon = tested on: HT29 colon
# SK-MEL-2 melanoma = tested on: SK-MEL-2 melanoma
# SNB-75 CNS = tested on: SNB-75 CNS
# OVCAR-3 ovarian = tested on: OVCAR-3 ovarian
# MOLT-4 leukemia = tested on: MOLT-4 leukemia
# DU-145 prostate = tested on: DU-145 prostate
# CCRF-CEM leukemia = tested on: CCRF-CEM leukemia
# NCI-H226 lung = tested on: NCI-H226 lung
# SN12C renal = tested on: SN12C renal
# SR leukemia = tested on: SR leukemia
smiles,measurement,setting,value
CCC1(O)C(=O)OCc2c1cc1n(c2=O)Cc2cc3ccccc3nc2-1 (stereo not drawn),TGI,NCI-H522 lung,3.89 µM
same,TGI,SNB-19 CNS,0.0667 µM
same,TGI,U251 CNS,0.57 µM
same,TGI,K-562 leukemia,> 100 µM
same,TGI,PC-3 prostate,23.9 µM
same,TGI,BT-549 breast,> 41.4 µM
same,TGI,HCC-2998 colon,11.2 µM
same,TGI,HL-60(TB) leukemia,0.0659 µM
same,TGI,NCI/ADR-RES ovarian,2.15 µM
same,GI50,SF-539 CNS,0.0107 µM
same,TGI,SF-539 CNS,> 100 µM
same,TGI,UO-31 renal,0.156 µM
same,TGI,CAKI-1 renal,> 31.9 µM
same,TGI,TK-10 renal,50.5 µM
same,TGI,786-0 renal,0.203 µM
same,TGI,RPMI-8226 leukemia,1.89 µM
same,TGI,RXF 393 renal,0.527 µM
same,TGI,SF-268 CNS,15.2 µM
same,TGI,SF-295 CNS,0.226 µM
same,TGI,MALME-3M melanoma,11.8 µM
same,TGI,OVCAR-8 ovarian,15.7 µM
same,TGI,T-47D breast,> 33.6 µM
same,TGI,HS 578T breast,> 100 µM
same,TGI,UACC-257 melanoma,3.57 µM
same,TGI,MDA-MB-435,8.35 µM
same,TGI,SK-MEL-5 melanoma,0.312 µM
same,TGI,M14 melanoma,0.0271 µM
same,TGI,A549 NSCLC,0.334 µM
same,TGI,HOP-62 NSCLC,0.319 µM
same,TGI,OVCAR-4 ovarian,> 100 µM
same,TGI,NCI-H460 lung,10.7 µM
same,TGI,MDA-MB-231 breast,7.06 µM
same,TGI,UACC-62 melanoma,0.0379 µM
same,TGI,HCT-15 colon,17.1 µM
same,TGI,HCT-116 colon,0.614 µM
same,TGI,HOP-92 NSCLC,23.9 µM
same,TGI,IGROV1 ovarian,5.96 µM
same,TGI,KM12 colon,> 100 µM
same,TGI,SW-620 colon,> 41.2 µM
same,TGI,SK-OV-3 ovarian,7.11 µM
same,TGI,LOX IMVI melanoma,1.33 µM
same,TGI,OVCAR-5 ovarian,1.25 µM
same,TGI,ACHN renal,0.519 µM
same,TGI,A498 renal,4.15 µM
same,TGI,EKVX NSCLC,0.488 µM
same,TGI,MCF7 breast,2.06 µM
same,TGI,NCI-H23 lung,0.0806 µM
same,TGI,COLO 205 colon,3.55 µM
same,TGI,SK-MEL-28 melanoma,18.4 µM
same,TGI,HT29 colon,0.394 µM
same,TGI,SK-MEL-2 melanoma,3.52 µM
same,TGI,SNB-75 CNS,0.19 µM
same,TGI,OVCAR-3 ovarian,2.72 µM
O=S1(=O)c2ccccc2Oc2ccc(C(/C=N/O)=N/O)cc21,TGI,NCI-H522 lung,26.7 µM
same,TGI,U251 CNS,> 100 µM
same,TGI,K-562 leukemia,> 100 µM
same,TGI,PC-3 prostate,> 100 µM
same,TGI,MOLT-4 leukemia,> 100 µM
same,TGI,HL-60(TB) leukemia,47.3 µM
same,TGI,NCI/ADR-RES ovarian,53.9 µM
same,TGI,SF-539 CNS,84.8 µM
same,TGI,DU-145 prostate,53 µM
same,TGI,UO-31 renal,68.8 µM
same,TGI,CAKI-1 renal,42.2 µM
same,TGI,TK-10 renal,30.8 µM
same,TGI,786-0 renal,> 100 µM
same,TGI,RPMI-8226 leukemia,53.5 µM
same,TGI,RXF 393 renal,63.6 µM
same,TGI,SF-268 CNS,> 100 µM
same,TGI,SF-295 CNS,51.2 µM
same,TGI,MALME-3M melanoma,25.7 µM
same,TGI,OVCAR-8 ovarian,47.7 µM
same,TGI,T-47D breast,35.6 µM
same,TGI,MDA-MB-435,52.4 µM
same,TGI,M14 melanoma,> 100 µM
same,TGI,A549 NSCLC,> 100 µM
same,TGI,HOP-62 NSCLC,> 100 µM
same,TGI,OVCAR-4 ovarian,> 100 µM
same,TGI,CCRF-CEM leukemia,72.1 µM
same,TGI,NCI-H460 lung,> 100 µM
same,TGI,MDA-MB-231 breast,> 100 µM
same,TGI,UACC-62 melanoma,> 100 µM
same,TGI,HCT-15 colon,> 100 µM
same,TGI,HCT-116 colon,> 100 µM
same,TGI,HOP-92 NSCLC,> 100 µM
same,TGI,IGROV1 ovarian,68.9 µM
same,TGI,KM12 colon,> 100 µM
same,TGI,NCI-H226 lung,> 100 µM
same,TGI,SN12C renal,> 100 µM
same,TGI,SK-OV-3 ovarian,> 100 µM
same,TGI,LOX IMVI melanoma,41.5 µM
same,TGI,OVCAR-5 ovarian,> 100 µM
same,TGI,ACHN renal,> 100 µM
same,TGI,EKVX NSCLC,57.7 µM
same,TGI,MCF7 breast,92.5 µM
same,TGI,COLO 205 colon,> 100 µM
same,TGI,SK-MEL-28 melanoma,> 100 µM
same,TGI,HT29 colon,> 100 µM
same,TGI,SK-MEL-2 melanoma,70.7 µM
same,TGI,SNB-75 CNS,> 100 µM
same,TGI,OVCAR-3 ovarian,36.6 µM
CC(C)c1ccc(Cn2ccc3c4c(N)nc(NC5CC5)nc4ccc32)cc1,GI50,DU-145 prostate,0.399 µM
same,TGI,DU-145 prostate,1.38 µM
same,GI50,TK-10 renal,1.23 µM
same,TGI,TK-10 renal,2.57 µM
same,GI50,RXF 393 renal,0.172 µM
same,TGI,RXF 393 renal,0.58 µM
same,GI50,NCI-H460 lung,0.198 µM
same,TGI,NCI-H460 lung,1.07 µM
same,GI50,SW-620 colon,0.326 µM
same,TGI,SW-620 colon,1.32 µM
O=C1[C@H](O)[C@@H]2C(O)O[C@H]3[C@@H]2N1C[C@H]3[Si](c1ccccc1)(c1ccccc1)c1ccccc1 (stereo partly drawn),TGI,SNB-19 CNS,> 100 µM
same,TGI,U251 CNS,> 100 µM
same,TGI,K-562 leukemia,> 100 µM
same,TGI,PC-3 prostate,> 100 µM
same,TGI,BT-549 breast,> 100 µM
same,TGI,HCC-2998 colon,> 100 µM
same,TGI,MOLT-4 leukemia,> 100 µM
same,TGI,NCI/ADR-RES ovarian,> 100 µM
same,TGI,SF-539 CNS,> 100 µM
same,TGI,DU-145 prostate,> 100 µM
same,TGI,UO-31 renal,> 100 µM
same,TGI,CAKI-1 renal,> 100 µM
same,TGI,TK-10 renal,> 100 µM
same,TGI,786-0 renal,> 100 µM
same,TGI,RPMI-8226 leukemia,> 100 µM
same,TGI,RXF 393 renal,> 100 µM
same,TGI,SF-268 CNS,> 100 µM
same,TGI,SF-295 CNS,> 100 µM
same,TGI,OVCAR-8 ovarian,> 100 µM
same,TGI,T-47D breast,> 100 µM
same,TGI,UACC-257 melanoma,> 100 µM
same,TGI,MDA-MB-435,> 100 µM
same,TGI,SK-MEL-5 melanoma,> 100 µM
same,TGI,M14 melanoma,> 100 µM
same,TGI,A549 NSCLC,> 100 µM
same,TGI,HOP-62 NSCLC,> 100 µM
same,TGI,OVCAR-4 ovarian,> 100 µM
same,TGI,SR leukemia,> 100 µM
same,TGI,NCI-H460 lung,> 100 µM
same,TGI,MDA-MB-231 breast,> 100 µM
same,TGI,UACC-62 melanoma,> 100 µM
same,TGI,HCT-15 colon,> 100 µM
same,TGI,HCT-116 colon,> 100 µM
same,TGI,IGROV1 ovarian,> 100 µM
same,TGI,KM12 colon,> 100 µM
same,TGI,NCI-H226 lung,> 100 µM
same,TGI,SW-620 colon,> 100 µM
same,TGI,SK-OV-3 ovarian,> 100 µM
same,TGI,LOX IMVI melanoma,> 100 µM
same,TGI,OVCAR-5 ovarian,> 100 µM
same,TGI,ACHN renal,> 100 µM
same,TGI,A498 renal,> 100 µM
same,TGI,EKVX NSCLC,> 100 µM
same,TGI,MCF7 breast,> 100 µM
same,TGI,NCI-H23 lung,> 100 µM
same,TGI,COLO 205 colon,> 100 µM
same,TGI,SK-MEL-28 melanoma,> 100 µM
same,TGI,HT29 colon,> 100 µM
same,TGI,SK-MEL-2 melanoma,> 100 µM
same,TGI,SNB-75 CNS,69.4 µM
same,TGI,OVCAR-3 ovarian,> 100 µM
COc1cc(/C=C/C(=O)c2c(C)nc3ccccc3c2/C=C/c2ccccc2)cc(OC)c1OC,GI50,K-562 leukemia,0.827 µM
same,TGI,K-562 leukemia,> 100 µM
same,GI50,MOLT-4 leukemia,2.21 µM
same,TGI,MOLT-4 leukemia,8.61 µM
same,GI50,HL-60(TB) leukemia,1.63 µM
same,TGI,HL-60(TB) leukemia,6 µM
same,GI50,RPMI-8226 leukemia,2.21 µM
same,TGI,RPMI-8226 leukemia,> 100 µM
same,GI50,OVCAR-8 ovarian,1.78 µM
same,TGI,OVCAR-8 ovarian,> 100 µM
same,GI50,HS 578T breast,4.2 µM
same,TGI,HS 578T breast,> 100 µM
same,GI50,SR leukemia,1.14 µM
same,TGI,SR leukemia,6.54 µM
same,GI50,CCRF-CEM leukemia,2.09 µM
same,TGI,CCRF-CEM leukemia,> 100 µM
same,GI50,NCI-H460 lung,1.86 µM
same,TGI,NCI-H460 lung,4.96 µM
same,GI50,MDA-MB-231 breast,2.15 µM
same,TGI,MDA-MB-231 breast,> 100 µM
same,GI50,HCT-116 colon,0.514 µM
same,TGI,HCT-116 colon,1.91 µM
same,GI50,LOX IMVI melanoma,1.42 µM
same,TGI,LOX IMVI melanoma,2.78 µM
same,GI50,HT29 colon,1.87 µM
same,TGI,HT29 colon,> 100 µM
